The assay has as its system IKKβ. In words: IKKβ level in fibroblasts from the skin of scleroderma patients, MG132 pre-treatment before IL-1β stimulation. The assay is classed as cell-based, human. The conditions noted are these: fibroblast from the skin of scleroderma patients; 2 μM MG132 for 2 hr before IL-1β (2.5 ng/mL, 60 min) stimulation; FIG. 11-3. The protocol:
The skin of scleroderma patients (n=5) and healthy individual (n=5) was collected by biopsy, and fibroblast was prepared. The fibroblast was cultured in DMEM medium added with L-glutamine, penicillin/streptomycin and 10% FCS at 37° C., 5% CO2 concentration. After culture, nuclear protein was extracted from the fibroblast by using NE-PER nuclear protein cytoplasmic protein separation extraction kit (Thermo Scientific), and the p65 protein levels of the whole-cell lysate and nuclear extract were compared. RNA was isolated from the fibroblast by using RNA aqueous (trade mark) kit (Applied Biosytems (trade mark)), and the p65 mRNA level was compared using TaqMan (registered trade mark) Gene Expression Assays kit (Applied Biosytems (trade mark)). The NFκB activity of the fibroblast was measured by NFκB p65 Transcription Assay Kit (Thermo Scientific) and compared. […] Further, fibroblasts from the skin of scleroderma patients were stimulated for 60 min with IL-1β (2.5 ng/mL), and IKKβ and nuclear p65 protein amounts were compared. […] In addition, fibroblast from the skin of scleroderma patients was treated with 2 μM MG132 for 2 hr before the aforementioned IL-β stimulation, and the IKKβ level was measured.

Residues, ends and D or L forms follow the SMILES beside them. *: point of attachment. Cbz = O=C(OCc1ccccc1)*

Regarding `CC(C)C[C@@H](C=O)NC(=O)[C@H](CC(C)C)NC(=O)[C@H](CC(C)C)NC(=O)OCc1ccccc1` [MG132] (Cbz-Leu-Leu-Leu-aldehyde), the IKKβ level entry is “recovered the IKKβ level”.

For the origin of these results see patent US9565840B2, “Fibrotic non-human animal, and use thereof” (KYOTO UNIVERSITY, priority 2012, dated 2017).
